# Results taken from US4782042A, “Antibiotic A 40926 mannosyl aglycon” (Gruppo Lepetit S.p.A., priority 1985, dated 1988).
# Key:
# [1] = tested on: Haemophilus influenzae type b ATCC 19418; assay: MIC, agar dilution (GB base agar + 1% Isovitalex + 0.001% hemin, 24 h); type: cell-based
# Strep. pneumoniae UC41 = assay: MIC, broth dilution (Todd-Hewitt broth, 24 h); type: cell-based
# [2] = tested on: Clostridium perfringens ISS30543; type: cell-based; settings: anaerobic
# [3] = tested on: Mycoplasma gallisepticum S6 Weybridge; assay: MIC, broth dilution (PPLO broth + 10% horse serum + 1% glucose, 48 h); type: cell-based
# [4] = tested on: Staph. epidermidis ATCC 12228; assay: MIC, broth dilution (Isosensitest broth, 24 h); type: cell-based
# [5] = tested on: Clostridium difficile ATCC 9689; assay: MIC, agar dilution (Wilkins-Chalgren agar, 48 h, anaerobic); type: cell-based
# [6] = tested on: Strep. faecalis ATCC 7080; assay: MIC, broth dilution (Isosensitest broth, 24 h); type: cell-based
# [7] = tested on: Neisseria gonorrhoeae ISM68/126; assay: MIC, broth dilution (GC base broth + 1% Isovitalex, 48 h, CO2-enriched); type: cell-based
# [8] = tested on: Strept. mitis clin. isolate; assay: MIC, broth dilution (Todd-Hewitt broth, 24 h); type: cell-based
# [9] = tested on: Bacteroides fragilis ATCC 23745; assay: MIC, agar dilution (Wilkins-Chalgren agar, 48 h, anaerobic); type: cell-based
# [10] = tested on: Propionibacterium acnes ATCC 6919; assay: as above; type: cell-based
# S. pyogenes C 203 = assay: Experimental septicemia in mice, ED50; type: in vivo; settings: mice infected intraperitoneally with S. pyogenes C 203; treated subcutaneously about 30 min after infection; survival, calculated on the 10th day (Spearman and Karber)
# Procedure: The antimicrobial activity of the compound of the invention is confirmed also in in vivo experiments conducted essentially as described by R. Pallanza et al., J. Antimicrob. Chemother. 11, 419 (1983). The experimental infection was induced in mice by intraperitoneally administering a suspension of S. pyogenes C 203. Inocula had been adjusted so that the untreated animals died of septicemia within 48 h. Animals were treated subcutaneously with the test compound about 30 min after infection. The ED50 value was calculated on the 10th day by the method of Spearman and Karber (D. J. Finney "Statistical Methods in Biological Assay", Griffin, page 524, 1952) on the basis of the percentage of survival at each dose.
# Strep. pyogenes C203 = assay: MIC, broth dilution (Todd-Hewitt broth, 24 h); type: cell-based
# [11] = tested on: Escherichia coli SKF 12140; assay: MIC, broth dilution (Isosensitest broth, 24 h); type: cell-based
# Staph. aureus Tour = assay: MIC, broth dilution (Isosensitest broth, 24 h); type: cell-based
substance,measurement,setting,value
antibiotic A 40926 mannosyl aglycon,M.I.C.,[1],64 µg/mL
same,M.I.C.,Strep. pneumoniae UC41,1 µg/mL
same,M.I.C.,[2],0.13 µg/mL
same,M.I.C.,[3],> 128 µg/mL
same,M.I.C.,[4],0.5 µg/mL
same,M.I.C.,[5],2 µg/mL
same,M.I.C.,[6],1 µg/mL
same,M.I.C.,[7],32 µg/mL
same,M.I.C.,[8],1 µg/mL
same,M.I.C.,[9],64 µg/mL
same,M.I.C.,[10],1 µg/mL
same,ED50,S. pyogenes C 203,3.8 mg/kg
same,M.I.C.,Strep. pyogenes C203,1 µg/mL
same,M.I.C.,[11],> 128 µg/mL
same,M.I.C.,"Staph. aureus Tour; Staph. aureus Tour (L165), 10^6 cfu/ml",1 µg/mL
same,M.I.C.,"Staph. aureus Tour; Staph. aureus Tour, 30% bovine serum",2 µg/mL
same,M.I.C.,"Staph. aureus Tour; Staph. aureus Tour, inoculum about 10^4-10^5 cfu/ml",0.25 µg/mL
